pIC50, pKd: −log10 of the molar value. Where two headings read alike, the source gives them in different places.
Experiments:
RSK = experiment: Western blot of RSK phosphorylation in A375 cells; type: cell-based, human; conditions: fisetin 60 µM:24 h, FR180204 10 µM
Source text: (§1) WM35 and A375 cells were obtained from ATCC (Manassas, VA), NCI/ADR-Res cells from NCI (Developmental Therapeutics Program, Frederick, MD) while 451Lu cells were provided by Dr. Meenhard Herlyn (Wistar Institute, PA). Authentication report was provided by ATCC and NCI for post-freeze viability, growth properties, morphology, mycoplasma contamination, species determination (cytochrome c oxidase I assay and STR analysis), sterility test and human pathogenic virus testing. Cells were frozen in aliquots in liquid nitrogen and cultured within six months. 451Lu cells were authenticated upon receipt using STR analysis and all cell lines are regularly tested for mycoplasma contamination using MycoAlert Mycoplasma Detection Kit from Lonza (Basel, Switzerland). WM35, A375 cells were cultured in DMEM, NCI/ADR-Res in RPMI and 451Lu in MEM with 10% FBS and 1% penicillin-streptomycin, at 37 °C with 5% CO2 in a humid environment. After treatment of cells with/without fisetin and/or inhibitors, whole cell lysates were prepared and western blot analysis was performed as described elsewhere.

451Lu melanoma cells = experiment: 451Lu melanoma xenograft in athymic nude mice; type: in vivo; conditions: day 35; fisetin 1 mg/animal i.p. thrice weekly; vemurafenib 2 mg/animal oral gavage 5 days/week; control 1179.7 mm^3
Description: Athymic (nu/nu) female nude mice (Harlan, Madison, WI), 4–5 weeks old, were housed under pathogen-free conditions, in the University of Wisconsin Animal Resource Facility, with a 12-hour light/12-hour dark schedule and fed an autoclaved diet ad libitum. All animal experiments were approved by and carried out according to Institutional Animal Care and Use Committee guidelines, University of Wisconsin-Madison, protocol # M005212. Briefly, 1 × 10^6 451Lu cells were injected s/c into each flank of 18 mice randomly divided into 3 groups. The first group received intraperitoneal injection of fisetin 40 mg/kg b.wt. (1 mg/animal) thrice weekly, the second group received vemurafenib by oral gavage 80 mg/kg b.wt. (2 mg/animal) dissolved in DMSO, 5 days/week, while the third group served as the DMSO treated control group. Mice weight and tumor volumes were recorded twice weekly. The animals were sacrificed when tumors reached a volume of 1200 mm^3 in the control group. Samples were collected and stored at −80 °C until further analysis.

YB-1 = experiment: Western blot/immunocytochemistry of YB-1 in melanoma cells; type: cell-based, human
Source text: as §1, with “After treatment of cells with/without fisetin and/or inhibitors, whole cell lysates were prepared and western blot analysis was performed as described elsewhere.” left out
For immunohistochemistry, sections from melanoma constructs, fixed in 10% formalin were deparaffinized and rehydrated in xylene and a graded series of ethanol and blocked in 2% goat serum/PBS for 30 min. After incubation with specific primary antibody overnight and biotinylated secondary antibody for 1 h, slides were counterstained with hematoxylin and immunoreactive complexes were detected using 3,3′-diaminobenzidene (Dako Corp., CA). […]

RSK2 binding to YB-1 = biological target: T1, RSK2 binding to YB-1 (Homo sapiens, UniProt P51812); experiment: SPR competition assay, RSK2 pre-incubated with fisetin over immobilized YB-1; conditions: RSK2 100 nM pre-incubated with fisetin 1 and 10 µM
T1 construct: recombinant human proteins [full length and HIS-tag]; (Life Technologies, Italy); His; purchased Life Technologies, Italy (RSK2); Abnova Corporation, Taiwan (YB-1)
T1 sequence (P51812 whole entry): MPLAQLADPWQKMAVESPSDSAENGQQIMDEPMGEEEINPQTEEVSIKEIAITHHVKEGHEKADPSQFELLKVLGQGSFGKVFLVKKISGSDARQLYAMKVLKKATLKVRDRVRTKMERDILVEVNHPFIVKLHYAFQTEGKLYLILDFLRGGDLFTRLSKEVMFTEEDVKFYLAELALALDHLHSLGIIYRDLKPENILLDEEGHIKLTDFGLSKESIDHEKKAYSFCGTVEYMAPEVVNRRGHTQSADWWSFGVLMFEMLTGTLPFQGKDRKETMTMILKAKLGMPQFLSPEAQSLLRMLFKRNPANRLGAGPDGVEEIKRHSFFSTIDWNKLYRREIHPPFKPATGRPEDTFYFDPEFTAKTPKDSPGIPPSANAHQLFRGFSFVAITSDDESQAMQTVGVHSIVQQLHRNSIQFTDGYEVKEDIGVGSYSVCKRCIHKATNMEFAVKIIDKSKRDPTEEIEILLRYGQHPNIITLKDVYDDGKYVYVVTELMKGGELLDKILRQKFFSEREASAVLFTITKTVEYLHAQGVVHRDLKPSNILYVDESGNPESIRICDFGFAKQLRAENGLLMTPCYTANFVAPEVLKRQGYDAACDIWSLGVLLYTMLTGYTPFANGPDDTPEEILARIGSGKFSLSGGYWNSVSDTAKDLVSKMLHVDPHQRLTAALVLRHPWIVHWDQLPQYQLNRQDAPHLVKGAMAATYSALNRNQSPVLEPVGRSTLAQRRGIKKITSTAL
Description: (§2) Binding experiments were performed using a Biacore T-200 instrument (Uppsala, Sweden) at 25 °C. 60 response units (RU) of the YB-1 human recombinant protein with GST-tag at N-terminal (51–139 aa, 35 kDa including GST tag, from Abnova Corporation, Taiwan) were directly immobilized on the EDC/NHS activated flow cell2 of the CM5 chip (GE certified) in water. The unoccupied sites were blocked with 1 M ethanol amine. The analytes RPS6KA1 (RSK1, 88.5 kDa) and RPS6KA3 (RSK2, 86.3 kDa) recombinant human proteins [full length and HIS-tag] (Life Technologies, Italy) were flown over the chip at variable concentrations in 10 mM sodium acetate buffer (pH 5.0), with flow rate of 5ul/min, at a single analyte concentration. Binding of analyte to the immobilized protein was monitored in real time to obtain on (ka) and off (kd) rates. The equilibrium constant (KD) was calculated from the observed ka and kd or by steady state kinetics as for the small molecules. Stocks were prepared in 100% DMSO, and further dilutions were made in assay buffer containing 10 mM HEPES buffer (pH 7.4), 150 mM NaCl, 3 mM EDTA, 0.05% P20 (polyoxyethylenesorbitan) and 0.1% BSA. Full kinetics analysis was performed at using analyte concentrations 50 nM (or 100 nM without BSA) to 0, run with serial dilutions, 50, 25, 12.5, 6.25, 3.125, 0 nM, and a flow rate of 30 ul/min. […]

RSK3 [1] = biological target: T2, RSK3 (Homo sapiens, UniProt Q15349); experiment: KINOMEscan competition binding assay; design: RSK3 (Kinase Domain 1-N-terminal): Average Kd (nM): 5200; RSK3 (Kinase Domain 2-C-terminal): Average Kd (nM): 5800; purchased KINOMEscan screening platform (San Diego, CA), contract assay; conditions: duplicate, top concentration 100 µM
Description: (§3) The KINOMEscan screening platform (San Diego, CA) was employed to quantitatively measure interactions between fisetin and RSK isoforms. Binding constants (Kds) were calculated by measuring the amount of kinase captured on solid support as a function of the test compound concentration, using the Hill equation. The Hill Slope was set to −1. Curves were fitted using a non-linear least square fit with the Levenberg-Marquardt algorithm.

RSK1 [2] = biological target: T3, RSK1 (Homo sapiens, UniProt Q15418); experiment: KINOMEscan competition binding assay; design: RSK1 (Kinase Domain 1-N-terminal): Average Kd (nM): 8100; RSK1 (Kinase Domain 2-C-terminal): Average Kd (nM): 2500; purchased KINOMEscan screening platform (San Diego, CA), contract assay; conditions: duplicate, top concentration 100 µM
Description: as §3

ERK1 = ERK1 (Homo sapiens, UniProt P27361); experiment: Radiometric in vitro kinase activity assay; type: biochemical
Sequence of ERK1 (P27361 whole entry): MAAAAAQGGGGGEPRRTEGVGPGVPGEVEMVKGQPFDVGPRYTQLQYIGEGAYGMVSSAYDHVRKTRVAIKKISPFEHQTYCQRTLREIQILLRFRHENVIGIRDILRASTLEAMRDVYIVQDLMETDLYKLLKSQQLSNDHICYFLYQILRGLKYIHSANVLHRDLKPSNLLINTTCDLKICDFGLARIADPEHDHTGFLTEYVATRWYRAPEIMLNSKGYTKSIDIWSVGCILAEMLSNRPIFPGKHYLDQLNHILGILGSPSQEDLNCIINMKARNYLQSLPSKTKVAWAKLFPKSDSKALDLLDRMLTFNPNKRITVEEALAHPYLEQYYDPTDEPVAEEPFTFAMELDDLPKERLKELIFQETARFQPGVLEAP

NCI/ADR-Res cells = experiment: MTT cell viability; type: cell-based, human; conditions: NCI/ADR-Res ovarian tumor cells
Description: Cells seeded in 24-well plates were treated at 70% confluence with/without fisetin and/or vemurafenib for 24 hours. Cell viability was determined by MTT assay as described.

RSK2 [3] = biological target: T4, RSK2 (Homo sapiens, UniProt P51812); experiment: Radiometric in vitro kinase activity assay (Reaction Biology); type: biochemical; design: purchased Reaction Biology Corporation (Malvern, PA), contract assay; conditions: 10-dose, 3-fold serial dilution from 100 μM; 30 μM ATP; read-out: IC50 (M), kinase activity inhibition RSK2
Target sequence in this assay (P51812 whole entry): as the sequence (P51812 whole entry) above

RSK1 [4] = biological target: T3, RSK1; experiment: biochemical
Description: In vitro kinase activity profiling of RSK isoforms was performed at Reaction Biology Corporation (Malvern, PA). Briefly, the specific kinase/substrate pair alongwith required cofactors was prepared in reaction buffer.
Target sequence in this assay (Q15418 whole entry, the tested form may be a part): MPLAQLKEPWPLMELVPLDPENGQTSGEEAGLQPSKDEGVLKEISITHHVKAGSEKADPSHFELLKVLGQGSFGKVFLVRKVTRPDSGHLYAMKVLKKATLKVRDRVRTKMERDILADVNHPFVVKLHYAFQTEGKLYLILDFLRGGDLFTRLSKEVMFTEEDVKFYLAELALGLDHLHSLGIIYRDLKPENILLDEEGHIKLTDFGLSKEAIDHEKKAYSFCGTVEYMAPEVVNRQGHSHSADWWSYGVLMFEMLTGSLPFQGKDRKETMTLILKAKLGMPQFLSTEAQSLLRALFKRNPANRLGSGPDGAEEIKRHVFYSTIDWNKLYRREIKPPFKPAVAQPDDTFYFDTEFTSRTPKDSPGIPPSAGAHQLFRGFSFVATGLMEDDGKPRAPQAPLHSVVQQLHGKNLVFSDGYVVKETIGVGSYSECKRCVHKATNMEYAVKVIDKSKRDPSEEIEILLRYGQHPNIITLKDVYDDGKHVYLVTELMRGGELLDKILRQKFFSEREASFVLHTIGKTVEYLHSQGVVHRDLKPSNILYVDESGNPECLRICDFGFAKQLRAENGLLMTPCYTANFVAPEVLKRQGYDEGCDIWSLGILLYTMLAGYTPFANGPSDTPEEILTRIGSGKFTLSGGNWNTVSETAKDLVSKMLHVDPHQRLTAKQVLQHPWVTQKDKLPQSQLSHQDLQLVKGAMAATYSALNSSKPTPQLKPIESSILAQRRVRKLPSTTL

ERK2 = ERK2 (Homo sapiens, UniProt P28482); experiment: Radiometric in vitro kinase activity assay; type: biochemical
Sequence of ERK2 (P28482 whole entry): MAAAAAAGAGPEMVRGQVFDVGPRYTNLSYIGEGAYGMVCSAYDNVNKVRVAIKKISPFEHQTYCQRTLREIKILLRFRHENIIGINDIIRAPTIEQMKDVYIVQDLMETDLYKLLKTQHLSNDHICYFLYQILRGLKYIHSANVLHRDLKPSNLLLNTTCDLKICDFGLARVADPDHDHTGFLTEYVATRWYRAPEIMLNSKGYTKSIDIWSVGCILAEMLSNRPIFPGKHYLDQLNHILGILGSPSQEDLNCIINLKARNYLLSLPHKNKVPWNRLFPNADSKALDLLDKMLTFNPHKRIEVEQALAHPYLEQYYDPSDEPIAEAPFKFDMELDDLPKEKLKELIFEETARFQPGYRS

RSK2 [5] = biological target: T4, RSK2; experiment: KINOMEscan competition binding assay; design: purchased KINOMEscan screening platform (San Diego, CA), contract assay
Description: as §3

RSK3 [6] = biological target: T2, RSK3; experiment: Radiometric in vitro kinase activity assay (Reaction Biology); type: biochemical; design: purchased Reaction Biology Corporation (Malvern, PA), contract assay; conditions: 10-dose, 3-fold serial dilution from 100 μM; 30 μM ATP; read-out: IC50 (M), kinase activity inhibition RSK3
Target sequence in this assay (Q15349 whole entry, the tested form may be a part, canonical isoform): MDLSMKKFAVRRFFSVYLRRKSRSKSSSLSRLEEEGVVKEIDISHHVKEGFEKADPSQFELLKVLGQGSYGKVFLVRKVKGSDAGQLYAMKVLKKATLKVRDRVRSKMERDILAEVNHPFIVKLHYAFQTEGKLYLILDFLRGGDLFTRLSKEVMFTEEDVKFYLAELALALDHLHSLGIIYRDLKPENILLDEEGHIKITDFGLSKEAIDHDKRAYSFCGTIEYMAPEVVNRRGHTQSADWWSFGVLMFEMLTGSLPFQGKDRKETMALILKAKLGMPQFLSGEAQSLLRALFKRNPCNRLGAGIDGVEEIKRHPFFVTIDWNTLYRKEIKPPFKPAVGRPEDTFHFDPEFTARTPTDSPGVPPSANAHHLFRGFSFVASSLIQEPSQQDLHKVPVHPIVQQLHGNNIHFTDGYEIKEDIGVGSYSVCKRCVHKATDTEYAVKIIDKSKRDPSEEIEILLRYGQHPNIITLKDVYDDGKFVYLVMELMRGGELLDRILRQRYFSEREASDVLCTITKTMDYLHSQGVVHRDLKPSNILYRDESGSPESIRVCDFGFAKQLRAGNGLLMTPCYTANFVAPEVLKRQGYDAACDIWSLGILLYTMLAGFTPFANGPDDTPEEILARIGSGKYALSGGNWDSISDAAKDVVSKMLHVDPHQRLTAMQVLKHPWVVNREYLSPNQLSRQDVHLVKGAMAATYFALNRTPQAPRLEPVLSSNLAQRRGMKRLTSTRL

[7] = biological target: T5, YB-1 human recombinant protein (Homo sapiens, UniProt P67809); experiment: SPR (Biacore) full kinetics, RSK analytes over immobilized YB-1; conditions: without BSA; analyte 100-0 nM; 25 °C; read-out: KD for binding to immobilized YB-1
T5 construct: (51–139 aa, 35 kDa including GST tag, from Abnova Corporation, Taiwan); purchased Abnova Corporation, Taiwan
T5 sequence (P67809 51-139): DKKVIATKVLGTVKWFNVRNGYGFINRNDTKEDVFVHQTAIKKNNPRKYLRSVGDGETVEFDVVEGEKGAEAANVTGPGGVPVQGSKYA
Description: as §2

In the case of `Nc1[nH]nc2nnc(-c3c(-c4ccccc4)nn4ccccc34)cc12` [FR180204, reference compound], the “RSK phosphorylation at threonine359/serine363” value (RSK) was “significant decrease”.
`CCCS(=O)(=O)Nc1ccc(F)c(C(=O)c2c[nH]c3ncc(-c4ccc(Cl)cc4)cc23)c1F` [vemurafenib, reference compound] was tested, and the average tumor volume (451Lu melanoma cells) was 641.7 mm^3.
With `CC(C)CCN1c2nc(Nc3cc(F)c(O)c(F)c3)ncc2N(C)C(=O)C1C` (stereo not drawn) [BI-D1870, reference compound] the YB-1 expression (YB-1; A375 cells, in comparison to fisetin (60 μM:24 h)) was “modest effect”.
With `O=c1c(O)c(-c2ccc(O)c(O)c2)oc2cc(O)ccc12` [Fisetin, fisetin] the “effect on binding of RSK2 to YB-1” value (RSK2 binding to YB-1) was “promote its binding to YB-1”, the pKd (RSK3 [1]; C-terminal kinase domain, read-out: Average Kd, RSK3 (Kinase Domain 2-C-terminal)) was 5.24 and the pKd (RSK3 [1]; N-terminal kinase domain, read-out: Average Kd, RSK3 (Kinase Domain 1-N-terminal)) was 5.28. The pKd (RSK1 [2]; C-terminal kinase domain, read-out: Average Kd, RSK1 (Kinase Domain 2-C-terminal)) was 5.60, the pKd (RSK1 [2]; N-terminal kinase domain, read-out: Average Kd, RSK1 (Kinase Domain 1-N-terminal)) was 5.09 and the average tumor volume (451Lu melanoma cells) was 789.3 mm^3. The “YB-1 phosphorylation and total protein levels” value (YB-1; A375 and 451Lu cells, 0–80 µM, 24 h) was “dose-dependent decrease in YB-1 phosphorylation”, the pIC50 (ERK1) was 5.07 and the cell viability (NCI/ADR-Res cells) was “reduced viability”. The IC50 (RSK2 [3]) was 2.78e-06 M, the pIC50 (RSK1 [4]) was 5.42 and the pIC50 (ERK2) was 5.01. For the same compound, the “RSK phosphorylation at threonine359/serine363” value (RSK) was “significant decrease”, the pKd (RSK2 [5]; C-terminal kinase domain, duplicate, top concentration 100 µM, read-out: Average Kd, RSK2 (Kinase Domain 2-C-terminal)) was 5.08 and the pKd (RSK2 [5]; N-terminal kinase domain, duplicate, top concentration 100 µM, read-out: Average Kd, RSK2 (Kinase Domain 1-N-terminal)) was 7.30. For the same compound, the pKd (RSK2 [5]; single replicate curve, C-terminal kinase domain, read-out: Kd, RSK2(Kin.Dom.2-C-terminal), Replicate ID = 1) was 5.09 and the IC50 (RSK3 [6]) was 8.91e-07 M.
“RSK2: recombinant human protein RPS6KA3, full length, HIS-tag, 86.3 kDa; SPR analyte” was tested, and the pKd [7] was 6.27.

— article PMC6200766, “Fisetin targets YB-1/RSK axis independent of its effect on ERK signaling: insights from in vitro and in vivo melanoma models” (Scientific Reports, 2018)
